Entries after “also recorded” stand apart in the source; their conditions may differ.

Assay [1] has as its target T1, lycopene cyclase (CarRP) (Mucor circinelloides f. lusitanicus, UniProt Q9UUQ6).
T1 construct: made in house; host or cells: Yarrowia lipolytica (po1f-derived strains); crude microsomal fraction
Nature of the assay: In vitro enzymatic assay of lycopene cyclase in yeast microsomes. The format is biochemical. Particulars: wild type CarRP (or CarR); lycopene 50˜350 mol/L as substrate, 30° C., 16 h. On the procedure:
(§1) To test this hypothesis, possible correlations between lycopene cyclase activity and lycopene concentration were examined using an in vitro enzymatic assay that employed a yeast microsomal system, as CarRP is predicted to be a membrane protein with six transmembrane helices (FIG. 26). […] This supported the hypothesis that lycopene cyclase was substrate-inhibited, thus creating a major bottleneck in carotenoid biosynthesis.
(§2) Yeast microsomes for in vitro enzymatic assays were prepared as described previously (Pompon et al., 1996). Briefly, strains harboring wild type or mutated CarRP were grown overnight in YNB media at 30° C. and then inoculated into 200 mL YNB media to an initial OD600 of 0.1. After 24 h cultivation, cells were collected by centrifugation at 4,000 rpm for 10 min. Resuspension of the cells in TEK buffer (50 mM Tris-HCl, pH 6.8, 1 mM EDTA, 0.1 M KCl) followed, and the solution was kept at room temperature for 5 min. Afterwards, the cells were recovered by centrifugation, washed in TES buffer (50 mM Tris-HCl, pH 6.8, 1 mM EDTA, 0.6 M sorbitol), resuspended in TESM buffer (50 mM Tris-HCl, pH 6.8, 1 mM EDTA, 0.6 M sorbitol, 14 mM 2-mercaptoethanol), and left at room temperature for 10 min. […] The solution was vortex for 10 min, and the organic phase was collected by centrifugation and analyzed by HPLC.

Assay [2] has as its target T2, lycopene cyclase (CarRP) (Mucor circinelloides f. lusitanicus, UniProt Q9UUQ6, Y27R).
T2 construct: made in house; host or cells: Yarrowia lipolytica (po1f-derived strains); crude microsomal fraction
The assay is described as above. It counts as biochemical. Particulars: CarRP (or CarR) variant compared to wild type; relative catalytic activity, FIG. 16D. Here is the method:
as §1, §2

T1 sequence (Q9UUQ6 whole entry): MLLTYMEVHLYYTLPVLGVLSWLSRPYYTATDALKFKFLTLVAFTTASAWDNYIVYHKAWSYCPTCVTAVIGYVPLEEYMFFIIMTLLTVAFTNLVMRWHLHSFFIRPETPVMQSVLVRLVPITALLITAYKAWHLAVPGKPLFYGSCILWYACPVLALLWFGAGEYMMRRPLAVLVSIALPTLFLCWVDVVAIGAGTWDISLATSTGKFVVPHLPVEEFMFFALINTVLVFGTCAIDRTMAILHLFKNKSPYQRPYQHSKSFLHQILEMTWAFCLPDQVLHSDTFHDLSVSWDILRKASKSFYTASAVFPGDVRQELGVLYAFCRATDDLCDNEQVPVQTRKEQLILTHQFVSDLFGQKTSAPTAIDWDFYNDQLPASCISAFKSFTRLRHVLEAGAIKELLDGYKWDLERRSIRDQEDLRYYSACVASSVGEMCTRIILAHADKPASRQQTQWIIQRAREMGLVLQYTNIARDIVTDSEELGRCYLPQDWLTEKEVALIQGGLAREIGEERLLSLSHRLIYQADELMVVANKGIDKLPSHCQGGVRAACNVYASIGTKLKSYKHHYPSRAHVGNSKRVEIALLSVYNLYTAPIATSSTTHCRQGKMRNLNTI
T2 sequence (Q9UUQ6 whole entry Y27R): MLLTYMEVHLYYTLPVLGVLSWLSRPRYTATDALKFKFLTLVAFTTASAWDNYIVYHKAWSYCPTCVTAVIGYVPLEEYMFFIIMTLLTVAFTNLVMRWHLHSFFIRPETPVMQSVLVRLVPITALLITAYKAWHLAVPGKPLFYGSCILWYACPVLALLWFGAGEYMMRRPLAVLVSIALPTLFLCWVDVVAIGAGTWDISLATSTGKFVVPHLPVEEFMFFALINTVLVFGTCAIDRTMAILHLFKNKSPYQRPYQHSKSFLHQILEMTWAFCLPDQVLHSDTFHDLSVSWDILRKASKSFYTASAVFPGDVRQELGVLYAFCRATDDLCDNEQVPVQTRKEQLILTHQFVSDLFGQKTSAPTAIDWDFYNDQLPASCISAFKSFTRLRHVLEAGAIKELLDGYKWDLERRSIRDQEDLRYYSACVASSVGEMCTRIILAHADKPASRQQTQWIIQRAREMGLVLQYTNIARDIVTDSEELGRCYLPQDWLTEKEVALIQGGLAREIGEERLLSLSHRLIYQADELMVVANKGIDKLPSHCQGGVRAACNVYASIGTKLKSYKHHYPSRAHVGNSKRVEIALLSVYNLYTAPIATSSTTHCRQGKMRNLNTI

`CC(C)=CCC/C(C)=C/C=C/C(C)=C/C=C/C(C)=C/C=C/C=C(C)/C=C/C=C(C)/C=C/C=C(\C)CCC=C(C)C` [lycopene]: at lycopene cyclase (CarRP) [1], the “lycopene cyclase activity with respect to lycopene concentration (substrate inhibition)” value is reported as “bi-phasic; also recorded: inhibited its downstream enzyme, lycopene cyclase, through substrate inhibition”.

B1: Y27R: variant of the R domain (lycopene cyclase) of CarRP with the substitution Y27R (protein)
chain: MLLTYMEVHLYYTLPVLGVLSWLSRPRYTATDALKFKFLTLVAFTTASAWDNYIVYHKAWSYCPTCVTAVIGYVPLEEYMFFIIMTLLTVAFTNLVMRWHLHSFFIRPETPVMQSVLVRLVPITALLITAYKAWHLAVPGKPLFYGSCILWYACPVLALLWFGAGEYMMRRPLAVLVSIALPTLFLCWVDVVAIGAGTWDISLATSTGKFVVPHLPVEEFMFFALINTVLVFGTCAI
With B1, the “substrate inhibition of lycopene cyclase variant by lycopene” value with lycopene cyclase (CarRP) [2] is “complete loss of substrate inhibition without reduction in enzyme activity; also recorded: completely free of substrate inhibition”.

The values are drawn from patent US20250101485A1, “METHODS OF PRODUCING C[…] ACID WHEY” (priority 2022, published 2025).
